Read-outs that look alike come from different tables or passages of the source.
How the values were obtained:
Assay type in all cases: cell-based
[1] = tested on: MCF-7; test: MTT assay (anti-proliferative activity); settings: read-out: IC 50 MCF-7
Procedure: (§1) The MTT assay was used initially to determine the anti-proliferative activity of the test compounds. In the MTT assay a yellow thiazolyl blue tetrazolium bromide salt (MTT) is reduced, in metabolically active cells, to form insoluble purple formazan crystals which are solubilised by the addition of dimethyl sulphoxide (DMSO).
(§2) Wells containing medium only were used as blanks. Following the attachment period, cells were treated with appropriate drug concentrations (20 μl added per well). 40 mg/ml stock drug solutions, in DMSO, were stored at −20° C. and on the day of drug treatment working solutions of 4 mg/ml were prepared in medium which was further diluted to achieve final drug dilution volumes of 20 μl. Initial screening was determined over a concentration range of 1-200 μg/ml. […] Cells were exposed to drug for 96 h continual exposure (37° C., 5% CO2). Following the 96 h incubation, 50 μl MTT solution (1 g MTT/500 ml PBS) was added per well and the plates were further incubated for 4 h (37° C., 5% CO2). After incubation the MTT and medium was removed from the wells and 100 μl DMSO added per well. Plates were agitated on an orbital mixer platform (Stuart Scientific) for 10 minutes. Absorbance was measured at 570 nm on a Biotrak II (Amersham Bioscience) plate reader. IC50 values were calculated comparing control and drug treated cells.

[2] = tested on: MDA-MB-468; test: MTT assay (anti-proliferative activity); settings: read-out: IC 50 MDA-MB-468
Procedure: as §1, §2

[3] = tested on: MalMe3M; test: MTT assay (anti-proliferative activity); settings: 96 h continual exposure, read-out: IC 50 MalMe3M
Procedure: as §1, §2

[4] = tested on: SkMel28; test: MTT assay (anti-proliferative activity); settings: read-out: IC 50 SkMel28
Procedure: as §1, §2

[5] = tested on: breast cancer (MDA-MB-468 and MCF-7 cell lines) and melanoma cell lines (MalMe3, SkMe128); test: Cell cycle analysis by flow cytometry (propidium iodide); apoptosis as cells in sub G0/G1 (pre G0) peak; settings: following treatment with IC70 concentration of compound
Procedure: Assessment of cell cycle analysis was performed using propidium iodide staining of cells and subsequent analysis on a Beckton Dickinson flow cytometer. […] The following day the medium was removed and replaced with 5 ml medium per flask containing the appropriate drug concentrations to be tested. 40 mg/ml stock drug solutions in DMSO were stores at −20° C. and on the day off drug treatment working solutions of 4 mg/ml were prepared in medium from which the final drug dilutions were prepared. Cells were maintained in an incubator (37° C., 5% CO2) for up to 96 h post treatment. After 24, 48, 72 or 96 h time points the medium from each flask was collected, stored on ice, and the remaining cells in the flasks were trypsinised by aiding 1 ml trypsin-EDTA solution to each flask. Cells were replaced into the incubator for 10 min to allow them to detach from the plastic plate. The cells in each flask were collected by adding the appropriate medium removed from each flask back to the corresponding flask and then placing medium containing both the attached and floating cells into a 15 ml tube. Cells were centrifuged at 4° C. for 5 min at 1500 rpm and the supernatant removed from each tube. The remaining cells were washed twice in ice cold PBS and then fixed in ice cold methanol overnight at −20° C. On the day of analysis of cells each tube was centrifuged at 4° C. for 5 min at 1500 rpm and the methanol removed and the cells washed twice in ice cold PBS. 20 μl propidium iodide solution (1 mg/ml) and 20 μl RNase A (10 mg/ml solution) were added to 1 ml PBS per tube and the cells were incubated for 30 min at 37° C. Cells were analysed on the flow cytometer and cell cycle changes were assessed.

[6] = tested on: H157; test: MTT assay (anti-proliferative activity); settings: Homo sapiens, NCI-H157
From the text: as §1, with “(DMSO). Absorbance readings can then be determined spectrophotometrically and a relationship established between control untreated cells and drug treated cells enabling the quantification of anti-proliferative changes as a result of drug treatment (Mosmann, 1983).” for “(DMSO).”
(§3) Wells containing medium only were used as blanks. Following the attachment period, cells were treated with appropriate drug concentrations (20 μl added per well). 40 mg/ml stock drug solutions, in DMSO, were stored at −20° C. and on the day of drug treatment working solutions of 4 mg/ml were prepared in medium which was further diluted to achieve final drug dilution volumes of 20 μl. Initial screening was determined over a concentration range of 1-200 μg/ml. For potent compounds the assay was repeated over a narrower concentration range to determine accurate IC50 values. Cells were exposed to drug for 96 h continual exposure (37° C., 5% CO2). Following the 96 h incubation, 50 μl MTT solution (1 g MTT/500 ml PBS) was added per well and the plates were further incubated for 4 h (37° C., 5% CO2). After incubation the MTT and medium was removed from the wells and 100 μl DMSO added per well. Plates were agitated on an orbital mixer platform (Stuart Scientific) for 10 minutes. Absorbance was measured at 570 nm on a Biotrak II (Amersham Bioscience) plate reader. IC50 values were calculated comparing control and drug treated cells.

[7] = tested on: H23; test: MTT assay (anti-proliferative activity)
From the text: as §1, with “(DMSO). Absorbance readings can then be determined spectrophotometrically and a relationship established between control untreated cells and drug treated cells enabling the quantification of anti-proliferative changes as a result of drug treatment (Mosmann, 1983).” for “(DMSO).”
as §3

[8] = tested on: HCT+/+; test: MTT assay (anti-proliferative activity)
From the text: as §1, with “(DMSO). Absorbance readings can then be determined spectrophotometrically and a relationship established between control untreated cells and drug treated cells enabling the quantification of anti-proliferative changes as a result of drug treatment (Mosmann, 1983).” for “(DMSO).”
as §3

[9] = tested on: HCT−/−; test: MTT assay (anti-proliferative activity)
From the text: as §1, with “(DMSO). Absorbance readings can then be determined spectrophotometrically and a relationship established between control untreated cells and drug treated cells enabling the quantification of anti-proliferative changes as a result of drug treatment (Mosmann, 1983).” for “(DMSO).”
as §3

[10] = tested on: HT29; test: MTT assay (anti-proliferative activity)
From the text: as §1, with “(DMSO). Absorbance readings can then be determined spectrophotometrically and a relationship established between control untreated cells and drug treated cells enabling the quantification of anti-proliferative changes as a result of drug treatment (Mosmann, 1983).” for “(DMSO).”
as §3

[11] = tested on: LNCAP; test: MTT assay (anti-proliferative activity)
From the text: as §1, with “(DMSO). Absorbance readings can then be determined spectrophotometrically and a relationship established between control untreated cells and drug treated cells enabling the quantification of anti-proliferative changes as a result of drug treatment (Mosmann, 1983).” for “(DMSO).”
as §3

[12] = tested on: PC3; test: MTT assay (anti-proliferative activity)
From the text: as §1, with “(DMSO). Absorbance readings can then be determined spectrophotometrically and a relationship established between control untreated cells and drug treated cells enabling the quantification of anti-proliferative changes as a result of drug treatment (Mosmann, 1983).” for “(DMSO).”
as §3

[13] = tested on: PNT2; test: MTT assay (anti-proliferative activity)
From the text: as §1, with “(DMSO). Absorbance readings can then be determined spectrophotometrically and a relationship established between control untreated cells and drug treated cells enabling the quantification of anti-proliferative changes as a result of drug treatment (Mosmann, 1983).” for “(DMSO).”
as §3

[14] = tested on: RKO; test: MTT assay (anti-proliferative activity)
From the text: as §1, with “(DMSO). Absorbance readings can then be determined spectrophotometrically and a relationship established between control untreated cells and drug treated cells enabling the quantification of anti-proliferative changes as a result of drug treatment (Mosmann, 1983).” for “(DMSO).”
as §3

[15] = tested on: ZR-75-1; test: MTT assay (anti-proliferative activity)
From the text: as §1, with “(DMSO). Absorbance readings can then be determined spectrophotometrically and a relationship established between control untreated cells and drug treated cells enabling the quantification of anti-proliferative changes as a result of drug treatment (Mosmann, 1983).” for “(DMSO).”
as §3

[16] = tested on: caspase 3 in MDA-MB-468 breast cancer cells; test: Western blotting (immunoblot), caspase 3 cleavage; settings: concentrations similar to those required to kill MDA-MB-468 breast cancer cells
Procedure: Western blotting was used to assess drug induced changes of cellular proteins. Cells were seeded in P90 tissue culture vessels and treated with drugs at a range of concentrations for 72 and 96 h. Following incubation of cells for the required duration the medium was collected from the cells and attached cells were scraped from the tissue culture vessel and collected into the medium. Excess medium was removed by centrifugation at 4° C. for 5 minutes at […] and the supernatant removed from each tube. The remaining cells were washed twice in ice cold PBS and then incubated on ice with protein extraction buffer (10 mM Tris-HCl, 150 mM NaCl, 1 mM EDTA, 1% Triton-X, 0.1% SDS and a protease inhibitor) for 20 min. Cells were sonicated and centrifuged for 5 min at 4° C. and the supernatant removed for subsequent analysis. Protein samples were stored at −70° C. until analyses. 8, 10 or 12% acrylamide gels were prepared and used depending on size of protein to be determined. Protein concentrations were determined using the BCA™ (bicinchoninic acid) protein determination assay (Pierce) according to manufacturer's guidelines and 30-50 μg protein samples were loaded and separated on the acrylamide gels. Gels were ran at 150V for approximately 2 h at 4° C. Following separation of the protein samples each was transferred to a PVDF transfer membrane (Hybond-P) overnight at 4° C. at 40V. […]

[17] = Synergy with known cancer drugs measured using an MTT assay (FIGS. 9a-9c); settings: ALM-54 at 0.5 μg
From the text: as §1, with “(DMSO). Absorbance readings can then be determined spectrophotometrically and a relationship established between control untreated cells and drug treated cells enabling the quantification of anti-proliferative changes as a result of drug treatment (Mosmann, 1983).” for “(DMSO).”
as §3

[18] = Homo sapiens, MCF7, 96 h continual exposure
[19] = Homo sapiens, MDA-MB-468, 96 h continual exposure
[20] = Homo sapiens, SK-MEL-28, 96 h continual exposure

SMILES	IC50 ([1]; 96 h continual exposure) [µM]	IC50 ([2]; 96 h continual exposure) [µM]	IC50 [3] [µM]	IC50 ([4]; 96 h continual exposure) [µM]	% Cells in Pre G0 phase of Cell Cycle [5] [%]	IC50 [1, 18] [µM]	IC50 [2, 19] [µM]	IC50 ([3]; Homo sapiens, Malme-3M) [µM]	IC50 [4, 20] [µM]	further results
CC(C)(C)OC(=O)[C@H](Cc1ccccc1)NC(=O)c1ccc2c(c1O)C(=O)OCC2 [ALM-69, L-Phenyl Alanine Tert-Butyl Ester Amide of Compound ALM-68]	18.2	14.6	21.9	72.9	14.4					
CCCCCCCCCCCCNC(=O)c1ccc2c(c1O)C(=O)OC(C)C2 (racemic) [ALM-51, Dodecyl Amide]	12.8	10.3	25.7	33.4	20.6					
CC1Cc2cccc(O)c2C(=O)O1 (racemic) [ALM-9, Racemic Mellein]					30.4	946	283	> 960	821	IC50 [6]: > 561 µM; IC50 ([7]; Homo sapiens, NCI-H23): > 561 µM; IC50 [8]: > 561 µM; IC50 [9]: > 561 µM; IC50 ([10]; Homo sapiens, HT-29): 561 µM; IC50 ([11]; Homo sapiens, LNCaP): > 561 µM; IC50 ([12]; Homo sapiens, PC-3): 421 µM; IC50 ([13]; Homo sapiens, PNT2): 421 µM; IC50 ([14]; Homo sapiens, RKO): 494 µM; IC50 ([15]; Homo sapiens, ZR-75-1): 281 µM; cleavage and activation of caspase 3 (immunoblot) [16]: promotes the cleavage and thus the activation of caspase 3
CC1Cc2ccc(C(=O)NC(Cc3ccccc3)C(=O)O)c(O)c2C(=O)O1 (mixture of isomers) [ALM-54]	16.2	10.8	13.5	46	12.8					IC50 [7]: 2 µM; IC50 [8]: 16.3 µM; IC50 [9]: 10.8 µM; IC50 [10]: 1.3 µM; IC50 [11]: 4.7 µM; IC50 [12]: 5.4 µM; IC50 [13]: 5.4 µM; IC50 [14]: 2.7 µM; IC50 [15]: 0.13 µM; synergy with irinotecan ([17]; FIG. 9a): synergy; synergy with vinorelbine ([17]; FIG. 9b): synergy; synergy with cisplatin ([17]; FIG. 9c): synergy
CC1Cc2ccc(I)c(O)c2C(=O)O1 (racemic) [ALM-25, Racemic Ortho-Iodomellein]					37.0	72.3	72.3	75.6	78.9	
CCCCCCCC/C=C\CCCCCCCCNC(=O)c1ccc2c(c1O)C(=O)OC(C)C2 (racemic) [ALM-52, Oleyl Amide]	21.2	12.7	52.9	244	19.8					
CC1Cc2ccc(F)c(O)c2C(=O)O1 (racemic) [ALM-22, Racemic Ortho-Fluoromellein]					16.5	173	61.2	96.8	96.8	

Reference: US20090047221A1 (NIPRI LIMITED, priority 2004, published 2009)
